Source: patent publication US7883785B2, “Rhodium and iridium complexes” (Merck Patent GmbH, priority 2002, dated 2011)

Experiment: Solubilities of various complexes in toluene at 20° C.
Type: physicochemical
Conditions: table title: Solubilities of various complexes

Row | Solubility in toluene at 20° C. [mg/mL] | SMILES
1 | 6.3 | c1ccc(-c2ccc3[c](c2)[Ir-3]24([c]5cc(-c6ccccc6)ccc5-c5cccc[n+]52)([c]2cc(-c5ccccc5)ccc2-c2cccc[n+]24)[n+]2ccccc2-3)cc1 [Compound 1, fac-Tris[2-(2-pyridinyl-κN)(5-(phenyl)phenyl)-κC]iridium(III)]
2 | 25 | Cc1ccccc1-c1ccc2[c](c1)[Ir-3]13([c]4cc(-c5ccccc5C)ccc4-c4cccc[n+]41)([c]1cc(-c4ccccc4C)ccc1-c1cccc[n+]13)[n+]1ccccc1-2 [Compound 2, fac-tris[2-(2-pyridinyl-κN)(5-(o-tolyl)phenyl)-κC]iridium(III)]
3 | 32 | Cc1ccc(C)c(-c2ccc3[c](c2)[Ir-3]24([c]5cc(-c6cc(C)ccc6C)ccc5-c5cccc[n+]52)([c]2cc(-c5cc(C)ccc5C)ccc2-c2cccc[n+]24)[n+]2ccccc2-3)c1 [Compound 7, fac-Tris[2-(2-pyridinyl-κN)(5-(2,5-dimethylphenyl)phenyl)-κC]-iridium(III)]
4 | 92 | CC(C)COc1ccc(-c2ccc3[c](c2)[Ir-3]24([c]5cc(-c6ccc(OCC(C)C)c(OCC(C)C)c6)ccc5-c5cccc[n+]52)([c]2cc(-c5ccc(OCC(C)C)c(OCC(C)C)c5)ccc2-c2cccc[n+]24)[n+]2ccccc2-3)cc1OCC(C)C [Compound 8, fac-Tris[2-(2-pyridinyl-κN)(5-(3,4-bis(2-methylpropoxy)phenyl)phenyl)-κC]iridium(III)]
